Results published in article PMC7181131, “N-Pyrazinoyl Substituted Amino Acids as Potential Antimycobacterial Agents—the Synthesis and Biological Evaluation of Enantiomers” (Molecules, 2020).
Values after ≈ are worked out from the molar mass of the structure shown. Read-outs that look alike come from different tables or passages of the source.

Columns and labels:
[1] = tested on: M. avium ssp. avium CNCTC My 80/72 (ATCC 15769); assay: Antimycobacterial pre-screening, microdilution broth, M. avium; format: cell-based; settings: Mycobacterium avium, ATCC15769; Middlebrook 7H9 broth of declared pH 6.6
[2] = tested on: Candida tropicalis CCM 8264 (ATCC 750); assay: Antifungal microdilution broth method, CT; format: cell-based; settings: 24 h, read-out: MIC CT
[3] = tested on: Staphylococcus epidermidis CCM 4418 (ATCC 12228); assay: Antibacterial microdilution broth method, SE; format: cell-based; settings: 24 h, read-out: MIC SE
[4] = tested on: Candida krusei CCM 8271 (ATCC 6258); assay: Antifungal microdilution broth method, CK; format: cell-based; settings: Pichia kudriavzevii, 24 h, read-out: MIC CK
[5] = tested on: Mycobacterium tuberculosis H37Rv CNCTC My 331/88 (ATCC 27294); assay: Antimycobacterial pre-screening, microdilution broth, Mtb H37Rv; format: cell-based; settings: Middlebrook 7H9 broth of declared pH 6.6
[6] = tested on: M. kansasii CNCTC My 235/80 (ATCC 12478); assay: Antimycobacterial pre-screening, microdilution broth, M. kansasii; format: cell-based; settings: Mycobacterium kansasii, ATCC12478; Middlebrook 7H9 broth of declared pH 6.6
[7] = tested on: Mycobacterium aurum DSM 43999 (ATCC 23366); assay: Microplate Alamar Blue Assay (MABA) microdilution, M. aurum; format: cell-based
[8] = tested on: Aspergillus flavus CCM 8363; assay: Antifungal microdilution broth method, AFla; format: cell-based; settings: CCM8363, read after 48 h (filamentous fungi), read-out: MIC AFla
[9] = tested on: Lichtheimia corymbifera CCM 8077; assay: Antifungal microdilution broth method, LC; format: cell-based; settings: CCM8077, 48 h, read-out: MIC LC
[10] = tested on: M. smegmatis DSM 43465 (ATCC 607); assay: Microplate Alamar Blue Assay (MABA) microdilution, M. smegmatis; format: cell-based, Mycobacterium smegmatis
[11] = tested on: Aspergillus fumigatus ATCC 204305; assay: Antifungal microdilution broth method, AF; format: cell-based; settings: ATCC204305, 48 h, read-out: MIC AF
HepG2 cell line [12] = assay: HepG2 cytotoxicity, CellTiter 96 (MTS) assay; format: cell-based, human; settings: for IC50: Homo sapiens, read-out: HepG2 IC50
[13] = tested on: Klebsiella pneumoniae CCM 4415 (ATCC 10031); assay: Antibacterial microdilution broth method, KP; settings: read after 24 h of incubation
[14] = tested on: Trichophyton interdigitale CCM 8377 (ATCC 9533); assay: Antifungal microdilution broth method, TI; format: cell-based; settings: 48 h, read-out: MIC TI
[15] = tested on: Mtb H37Ra ITM-M006710 (ATCC 9431); assay: Microplate Alamar Blue Assay (MABA) microdilution, Mtb H37Ra; format: cell-based, Mycobacterium tuberculosis; settings: for MIC: Mycobacterium tuberculosis
[16] = tested on: Candida parapsilosis CCM 8260 (ATCC 22019); assay: Antifungal microdilution broth method, CP; format: cell-based; settings: Lodderomyces parapsilosis, 24 h, read-out: MIC CP
[17] = tested on: Candida albicans CCM 8320 (ATCC 24433); assay: Antifungal microdilution broth method, CA; format: cell-based; settings: 24 h, read-out: MIC CA
[18] = Solubility in the cultivation medium of the antibacterial and antifungal screening; settings: for solubility in the cultivation medium: antibacterial testing medium; for solubility in the medium: antifungal testing medium
some G- bacteria = assay: Antibacterial microdilution broth method, strains not given; format: cell-based; settings: read-out: MIC against some G- bacteria
[19] = tested on: Mycobacterium tuberculosis H37Rv CNCTC My 331/88 (ATCC 27294); set-up: method as in doi:10.3184/030823407×200001; settings: study by Pinheiro et al. ref 32; cited from earlier work
HepG2 cell line [20] = tested on: HepG2 cell line; set-up: method as in PMID 23357778; settings: converted to µM based on the literature value 1184.3 ± 120.2 µg/mL ref 62; cited from earlier work
[21] = Mycolicibacterium aurum, pH 6, read-out: MIC M. aurum µg/mL
[22] = Mycolicibacterium aurum, pH 6.6, read-out: MIC M. aurum
[23] = Mycolicibacterium smegmatis, pH 6, read-out: MIC M. smegmatis µg/mL
[24] = Mycolicibacterium smegmatis, pH 6.6, read-out: MIC M. smegmatis
[25] = HepG2, 24 h incubation, CellTiter 96
[26] = pH 6.6, read-out: MIC Mtb H37Ra
[27] = pH 6, Table 4, read-out: Mtb pH 6 MIC
[28] = pH 6, calculated from µg/mL, read-out: MIC Mtb H37Ra
[29] = Mycolicibacterium aurum, pH 6; read-out: MIC M. aurum
[30] = Mycolicibacterium smegmatis, pH 6; read-out: MIC M. smegmatis
[31] = Mycolicibacterium aurum, pH 6.6; read-out: MIC M. aurum
[32] = Mycolicibacterium smegmatis, pH 6.6; read-out: MIC M. smegmatis

| Compound | MIC [2] [µM] | MIC [3] [µM] | MIC [4] [µM] | MIC [7, 21] [µg/mL] | MIC [7, 22] [µg/mL] | MIC [8] [µM] | MIC [9] [µM] | MIC [10, 23] [µg/mL] | MIC [10, 24] [µg/mL] | MIC [11] [µM] | MIC [14] [µM] | MIC ([15]; pH 6) [µg/mL] | MIC ([15]; pH 6, read-out: MIC Mtb H37Ra) [µg/mL] | MIC [15, 26] [µg/mL] | MIC [15, 28] [µM] | MIC [16] [µM] | MIC [17] [µM] | solubility in the cultivation medium [18] | MIC [7, 29] [µg/mL] | MIC [10, 30] [µg/mL] | other results |
| --- | --- | --- | --- | --- | --- | --- | --- | --- | --- | --- | --- | --- | --- | --- | --- | --- | --- | --- | --- | --- | --- |
| CCOC(=O)[C@H](CC(C)C)NC(=O)c1cnccn1 (racemic) [PC-DL-Leu-Et, ethyl (pyrazine-2-carbonyl)leucinate] | > 500 | > 500 | > 500 | ≥ 125 | 250 (≈ 942 µM) | > 500 | > 500 | ≥ 125 | 250 (≈ 942 µM) | > 500 | > 500 | 15.6 | 15.6 | 250 | 58.9 | > 500 | > 500 | – | – | – | MIC [1]: > 100 µg/mL; MIC [5]: 100 µg/mL (≈ 377 µM); MIC [6]: > 100 µg/mL; IC50 (HepG2 cell line [12]; [25]): 788 µM; MIC KP [13]: > 500 µM; MIC [15, 27]: 59 µM |
| COC(=O)C[C@@H](NC(=O)c1cnccn1)C(=O)OC [PC-D-Asp-diMe, dimethyl (pyrazine-2-carbonyl)-D-aspartate] | – | – | – | – | ≥ 125 | – | – | – | ≥ 125 | – | – | ≥ 125 | ≥ 125 | ≥ 125 | ≥ 468 | – | – | insoluble | ≥ 125 | ≥ 125 | solubility in the medium [18]: insoluble |
| CC[C@@H](C)[C@@H](NC(=O)c1cnccn1)C(=O)OC [PC-D-Ile-Me, methyl (pyrazine-2-carbonyl)-D-isoleucinate] | – | – | – | – | – | – | – | – | – | – | – | 250 | 250 | ≥ 500 | 995 | – | – | insoluble | 250 (≈ 995 µM) | 250 (≈ 995 µM) | solubility in the medium [18]: insoluble; MIC [7, 31]: ≥ 500 µg/mL; MIC [10, 32]: ≥ 500 µg/mL |
| CCOC(=O)[C@H](C)NC(=O)c1cnccn1 [PC-L-Ala-Et, ethyl (pyrazine-2-carbonyl)-L-alaninate] | > 500 | 250 (≈ 55.8 µg/mL) | > 500 | ≥ 125 | ≥ 500 | > 500 | > 500 | ≥ 125 | ≥ 500 | > 500 | 500 (≈ 112 µg/mL) | 3.91 | 3.91 | ≥ 500 | 17.5 | > 500 | > 500 | – | – | – | MIC (some G- bacteria): 125 µM (≈ 27.9 µg/mL); HepG2 IC50 (HepG2 cell line [12]; 24 h incubation, CellTiter 96): above the tested range; IC50 (HepG2 cell line [12]; [25]): > 1000 µM; MIC KP [13]: > 500 µM; times lower MIC of the ethyl ester compared to the free acid ([15]; Mtb H37Ra, pH 6, PC-L-Ala-Et vs PC-L-Ala): at least 64 times; MIC [15, 27]: 18 µM |
| CC[C@H](C)[C@H](NC(=O)c1cnccn1)C(=O)OC [PC-L-Ile-Me, methyl (pyrazine-2-carbonyl)-L-isoleucinate] | – | – | – | – | – | – | – | – | – | – | – | 250 | 250 | ≥ 500 | 995 | – | – | insoluble | ≥ 500 | ≥ 500 | solubility in the medium [18]: insoluble; MIC [7, 31]: ≥ 500 µg/mL; MIC [10, 32]: ≥ 500 µg/mL |
| C=C(NC(=O)c1cnccn1)C(=O)OC [PC-MeAcr, methyl 2-(pyrazine-2-carboxamido)acrylate] | > 125 | > 125 | > 125 | 62.5 (≈ 302 µM) | 62.5 (≈ 302 µM) | > 125 | > 125 | ≥ 125 | 31.2 (≈ 151 µM) | > 125 | > 125 | 62.5 | 62.5 | 15.6 | 302 | > 125 | > 125 | – | – | – | MIC [1]: > 100 µg/mL; MIC [5]: 50 µg/mL (≈ 241 µM); MIC [6]: 100 µg/mL (≈ 483 µM); IC50 (HepG2 cell line [12]; HepG2, 24 h): > 500 µM; MIC on Mtb H37Rv [19]: 50 µg/mL (≈ 241 µM); MIC ([15]; pH 6, read-out: Mtb pH 6 MIC): 302 µM |
| NC(=O)c1cnccn1 [PZA, pyrazinamide, reference compound] | – | – | – | – | – | – | – | – | – | – | – | – | < 3.91 | ≥ 500 | < 31.8 | – | – | – | 250 (≈ 2030 µM) | ≥ 500 | IC50 (HepG2 cell line [20]): 9620 µM; MIC [7, 31]: ≥ 500 µg/mL; MIC [10, 32]: ≥ 500 µg/mL; MIC ([15]; pH 6, read-out: Mtb pH 6 MIC): 31.8 µM |
